PubChem BioAssay (NCI)
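Cells were grown in 96-well plates and exposed to each compound for 48 hours at five concentrations; endpoints were interpolated linearly between bracketing concentrations, or set to the highest concentration if not reached. The concentration for 50% growth inhibition is given as GI50. Definition used: TGI = concentration required for complete inhibition of growth.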

Legend:
Assay in all cases: DTP human tumour cell line panel, 48 h
SK-MEL-2 melanoma = test system: SK-MEL-2 melanoma
IGROV1 ovarian = test system: IGROV1 ovarian
OVCAR-8 ovarian = test system: OVCAR-8 ovarian
KM12 colon = test system: KM12 colon
HCT-15 colon = test system: HCT-15 colon
HOP-92 NSCLC = test system: HOP-92 NSCLC
HCC-2998 colon = test system: HCC-2998 colon
HOP-62 NSCLC = test system: HOP-62 NSCLC
UO-31 renal = test system: UO-31 renal
HL-60(TB) leukemia = test system: HL-60(TB) leukemia
NCI/ADR-RES ovarian = test system: NCI/ADR-RES ovarian
U251 CNS = test system: U251 CNS
K-562 leukemia = test system: K-562 leukemia
BT-549 breast = test system: BT-549 breast
HCT-116 colon = test system: HCT-116 colon
HT29 colon = test system: HT29 colon
UACC-257 melanoma = test system: UACC-257 melanoma
A549 NSCLC = test system: A549 NSCLC
PC-3 prostate = test system: PC-3 prostate
RPMI-8226 leukemia = test system: RPMI-8226 leukemia
NCI-H226 lung = test system: NCI-H226 lung
HS 578T breast = test system: HS 578T breast
OVCAR-4 ovarian = test system: OVCAR-4 ovarian
SN12C renal = test system: SN12C renal
EKVX NSCLC = test system: EKVX NSCLC
MCF7 breast = test system: MCF7 breast
SF-268 CNS = test system: SF-268 CNS
MDA-MB-435 = test system: MDA-MB-435
SF-539 CNS = test system: SF-539 CNS
T-47D breast = test system: T-47D breast
NCI-H460 lung = test system: NCI-H460 lung
UACC-62 melanoma = test system: UACC-62 melanoma
OVCAR-5 ovarian = test system: OVCAR-5 ovarian
SNB-19 CNS = test system: SNB-19 CNS
MOLT-4 leukemia = test system: MOLT-4 leukemia
SW-620 colon = test system: SW-620 colon
CCRF-CEM leukemia = test system: CCRF-CEM leukemia
CAKI-1 renal = test system: CAKI-1 renal
NCI-H23 lung = test system: NCI-H23 lung
LOX IMVI melanoma = test system: LOX IMVI melanoma
RXF 393 renal = test system: RXF 393 renal
SK-MEL-28 melanoma = test system: SK-MEL-28 melanoma
ACHN renal = test system: ACHN renal
MALME-3M melanoma = test system: MALME-3M melanoma
DU-145 prostate = test system: DU-145 prostate
M14 melanoma = test system: M14 melanoma
SK-MEL-5 melanoma = test system: SK-MEL-5 melanoma
786-0 renal = test system: 786-0 renal
SR leukemia = test system: SR leukemia
MDA-MB-231 breast = test system: MDA-MB-231 breast
A498 renal = test system: A498 renal
TK-10 renal = test system: TK-10 renal
SK-OV-3 ovarian = test system: SK-OV-3 ovarian
SNB-75 CNS = test system: SNB-75 CNS
COLO 205 colon = test system: COLO 205 colon
NCI-H522 lung = test system: NCI-H522 lung
SF-295 CNS = test system: SF-295 CNS
OVCAR-3 ovarian = test system: OVCAR-3 ovarian

## c1ccc(Nc2ncc(-c3ccccc3)o2)cc1
SK-MEL-2 melanoma
  GI50: > 25 µM
  TGI: > 25 µM
IGROV1 ovarian
  GI50: > 22 µM
  TGI: > 25 µM
OVCAR-8 ovarian
  GI50: > 25 µM
  TGI: > 25 µM
KM12 colon
  GI50: 10.7 µM
  TGI: > 25 µM
HCT-15 colon
  GI50: 24.3 µM
  TGI: > 25 µM
HOP-92 NSCLC
  GI50: > 25 µM
  TGI: > 25 µM
HCC-2998 colon
  GI50: > 25 µM
  TGI: > 25 µM
HOP-62 NSCLC
  GI50: > 25 µM
  TGI: > 25 µM
UO-31 renal
  GI50: 9.95 µM
  TGI: > 25 µM
HL-60(TB) leukemia
  GI50: 24 µM
  TGI: > 25 µM
NCI/ADR-RES ovarian
  GI50: > 25 µM
  TGI: > 25 µM
U251 CNS
  GI50: > 25 µM
  TGI: > 25 µM
K-562 leukemia
  GI50: > 25 µM
  TGI: > 25 µM
BT-549 breast
  GI50: > 25 µM
  TGI: > 25 µM
HCT-116 colon
  GI50: 24.5 µM
  TGI: > 25 µM
HT29 colon
  GI50: > 25 µM
  TGI: > 25 µM
UACC-257 melanoma
  GI50: > 25 µM
  TGI: > 25 µM
A549 NSCLC
  GI50: > 25 µM
  TGI: > 25 µM
PC-3 prostate
  GI50: > 23.2 µM
  TGI: > 25 µM
RPMI-8226 leukemia
  GI50: > 25 µM
  TGI: > 25 µM
NCI-H226 lung
  GI50: > 25 µM
  TGI: > 25 µM
HS 578T breast
  GI50: 11.5 µM
  TGI: > 25 µM
OVCAR-4 ovarian
  GI50: > 21.1 µM
  TGI: > 25 µM
SN12C renal
  GI50: > 25 µM
  TGI: > 25 µM
EKVX NSCLC
  GI50: > 25 µM
  TGI: > 25 µM
MCF7 breast
  GI50: 12.4 µM
  TGI: > 25 µM
SF-268 CNS
  GI50: > 25 µM
  TGI: > 25 µM
MDA-MB-435
  GI50: > 25 µM
  TGI: > 25 µM
SF-539 CNS
  GI50: > 25 µM
  TGI: > 25 µM
T-47D breast
  GI50: > 25 µM
  TGI: > 25 µM
NCI-H460 lung
  GI50: 25 µM
  TGI: > 25 µM
UACC-62 melanoma
  GI50: > 25 µM
  TGI: > 25 µM
OVCAR-5 ovarian
  GI50: > 25 µM
  TGI: > 25 µM
SNB-19 CNS
  GI50: > 25 µM
  TGI: > 25 µM
MOLT-4 leukemia
  GI50: > 25 µM
  TGI: > 25 µM
SW-620 colon
  GI50: > 25 µM
  TGI: > 25 µM
CCRF-CEM leukemia
  GI50: > 25 µM
  TGI: > 25 µM
CAKI-1 renal
  GI50: 17.8 µM
  TGI: > 25 µM
NCI-H23 lung
  GI50: > 25 µM
  TGI: > 25 µM
LOX IMVI melanoma
  GI50: 22.6 µM
  TGI: > 25 µM
RXF 393 renal
  GI50: > 19.7 µM
  TGI: > 25 µM
SK-MEL-28 melanoma
  GI50: > 25 µM
  TGI: > 25 µM
ACHN renal
  GI50: > 25 µM
  TGI: > 25 µM
MALME-3M melanoma
  GI50: > 25 µM
  TGI: > 25 µM
DU-145 prostate
  GI50: > 25 µM
  TGI: > 25 µM
M14 melanoma
  GI50: > 25 µM
  TGI: > 25 µM
SK-MEL-5 melanoma
  GI50: > 25 µM
  TGI: > 25 µM
786-0 renal
  GI50: > 25 µM
  TGI: > 25 µM
SR leukemia
  GI50: > 20.6 µM
  TGI: > 25 µM
MDA-MB-231 breast
  GI50: > 25 µM
  TGI: > 25 µM
A498 renal
  GI50: > 24 µM
  TGI: > 25 µM
TK-10 renal
  GI50: > 25 µM
  TGI: > 25 µM
SK-OV-3 ovarian
  GI50: > 25 µM
  TGI: > 25 µM
SNB-75 CNS
  GI50: > 24.1 µM
  TGI: > 25 µM
COLO 205 colon
  GI50: > 25 µM
  TGI: > 25 µM
NCI-H522 lung
  GI50: > 25 µM
  TGI: > 25 µM
SF-295 CNS
  GI50: > 25 µM
  TGI: > 25 µM
OVCAR-3 ovarian
  GI50: > 25 µM
  TGI: > 25 µM
